Laboratory results reported in patent EP2253617A1, “Halogenated compounds as pesticides” (Bayer CropScience AG, priority 2009, dated 2010).

Key:
Boophilus microplus = Boophilus microplus test (BOOPMI injection); assay type: in vivo; settings: 20 µg / Tier, injection into the abdomen, after 7 days; 100 % = no tick laid fertile eggs
Description: Boophilus microplus -Test (BOOPMI Injektion)
(§1) Lösungsmittel: Dimethylsulfoxid
Zur Herstellung einer zweckmäßigen Wirkstoffzubereitung vermischt man 10 mg Wirkstoff mit 0,5 ml Lösungsmittel und verdünnt das Konzentrat mit Wasser auf die gewünschte Konzentration. Die Wirkstofflösung wird in das Abdomen (Boophilus microplus) injiziert, die Tiere werden in Schalen überführt und in einem klimatisierten Raum aufbewahrt. Die Wirkungskontrolle erfolgt auf Ablage fertiler Eier. Nach 7 Tagen wird die Wirkung in % bestimmt. Dabei bedeutet 100%, dass keine Zecke fertile Eier gelegt hat.

Ctenocephalides felis = Ctenocephalides felis oral test (CTECFE); assay type: in vivo; settings: 100 ppm in citrated cattle blood, oral uptake, adult fleas, after 2 days; 100 % = all fleas killed
Description: Ctenocephalides felis oral (CTECFE)
Lösungsmittel: 1 Gewichtsteil Dimethylsulfoxid
Zwecks Herstellung einer zweckmäßigen Wirkstoffzubereitung vermischt man 10 mg Wirkstoff mit 0,5 ml Dimethylsulfoxid. Ein Teil des Konzentrats wird mit citriertem Rinderblut verdünnt und die gewünschte Konzentration hergestellt.
20 nüchterne adulte Flöhe (Ctenocephalides felis) werden in eine Kammer eingesetzt, die oben und unten mit Gaze verschlossen ist. Auf die Kammer wird ein Metallzylinder gestellt, dessen Unterseite mit Parafilm verschlossen ist. Der Zylinder enthält die Blut-Wirkstoffzubereitung, die von den Flöhen durch die Parafilmmembran aufgenommen werden kann. Nach 2 Tagen wird die Abtötung in % bestimmt. Dabei bedeutet 100 %, dass alle Flöhe abgetötet wurden; 0 % bedeutet, dass kein Floh abgetötet wurde.

Phaedon cochleariae = assay: Phaedon test (PHAECO spray treatment); assay type: in vivo; settings: 500 g/ha, sprayed Chinese cabbage leaf discs, larvae, after 7 days; 100 % = all beetle larvae killed
Text: Phaedon-Test (PHAECO Spritzbehandlung)
(§2) • Lösungsmittel: 78,0 GewichtsteileAceton 1,5 Gewichtsteile Dimethylformamid • Emulgator: 0,5 Gewichtsteile Alkylarylpolyglykolether
(§3) Zur Herstellung einer zweckmäßigen Wirkstoffzubereitung vermischt man 1 Gewichtsteil Wirkstoff mit den angegebenen Mengen Lösungsmittel und Emulgator und verdünnt das Konzentrat mit emulgatorhaltigem Wasser auf die gewünschte Konzentration.
Chinakohlblattscheiben (Brassica pekinensis) werden mit einer Wirkstoffzubereitung der gewünschten Konzentration gespritzt und nach dem Abtrocknen mit Larven des Meerrettichblattkäfers (Phaedon cochleariae) besetzt.
Nach 7 Tagen wird die Wirkung in % bestimmt. Dabei bedeutet 100 %, dass alle Käferlarven abgetötet wurden; 0 % bedeutet, dass keine Käferlarven abgetötet wurden.

Musca domestica Adulten = assay: Musca domestica test (MUSCDO); assay type: in vivo; settings: 100 ppm, treated sponge, adults, after 2 days; 100 % = all flies killed
Description: Musca domestica-Test (MUSCDO)
as §1
Zur Herstellung einer zweckmäßigen Wirkstoffzubereitung vermischt man 10 mg Wirkstoff mit 0,5 ml Dimethylsulfoxid und verdünnt das Konzentrat mit Wasser auf die gewünschte Konzentration. Gefäße, die einen Schwamm enthalten, der mit der Wirkstoffzubereitung der gewünschten Konzentration behandelt wurde, werden mit Musca domestica Adulten besetzt.
Nach 2 Tagen wird die Abtötung in % bestimmt. Dabei bedeutet 100 %, dass alle Fliegen abgetötet wurden; 0 % bedeutet, dass keine Fliegen abgetötet wurden.

Lucilia cuprina Larven = assay: Lucilia cuprina test (LUCICU); assay type: in vivo; settings: 100 ppm, treated horse meat, larvae, after 2 days; 100 % = all larvae killed
Description: Lucilia cuprina-Test (LUCICU)
as §1
Zur Herstellung einer zweckmäßigen Wirkstoffzubereitung vermischt man 10 mg Wirkstoff mit 0,5 ml Dimethylsulfoxid und verdünnt das Konzentrat mit Wasser auf die gewünschte Konzentration.Gefäße, die Pferdefleisch enthalten, das mit der Wirkstoffzubereitung der gewünschten Konzentration behandelt wurde, werden mit Lucilia cuprina Larven besetzt.
Nach 2 Tagen wird die Abtötung in % bestimmt. Dabei bedeutet 100 %, dass alle Larven abgetötet wurden; 0 % bedeutet, dass keine Larven abgetötet wurden.

Tetranychus urticae = assay type: in vivo; settings: foliar, 500 g/ha, 144 h
Text: Tetranychus-Test, OP-resistent (TETRUR Spritzbehandlung)
as §2, §3
Bohnenblattscheiben (Phaseolus vulgaris), die von allen Stadien der Gemeinen Spinnmilbe (Tetranychus urticae) befallen sind, werden mit einer Wirkstoffzubereitung der gewünschten Konzentration gespritzt.
Nach 6 Tagen wird die Wirkung in % bestimmt. Dabei bedeutet 100 %, dass alle Spinnmilben abgetötet wurden; 0 % bedeutet, dass keine Spinnmilben abgetötet wurden.

Spodoptera frugiperda = Spodoptera frugiperda test (SPODFR spray treatment); assay type: in vivo; settings: 500 g/ha, sprayed maize leaf discs, caterpillars, after 7 days; 100 % = all caterpillars killed
Text: Spodoptera frugiperda-Test (SPODFR Spritzbehandlung)
as §2, §3
Maisblattscheiben (Zea mays) werden mit einer Wirkstoffzubereitung der gewünschten Konzentration gespritzt und nach dem Abtrocknen mit Raupen des Heerwurms (Spodoptera frugiperda) besetzt.Nach 7 Tagen wird die Wirkung in % bestimmt. Dabei bedeutet 100 %, dass alle Raupen abgetötet wurden; 0 % bedeutet, dass keine Raupe abgetötet wurde.

## Cn1nc(C(F)(F)C(F)(F)F)c(C(F)(F)F)c1C(=O)Nc1ccc(Cl)c(C(=O)Nc2cc(Cl)ccn2)c1 [Ia-26]
Boophilus microplus
  Wirkung: 100%
Ctenocephalides felis
  Wirkung (Abtötung in %): 80%
Phaedon cochleariae
  Wirkung: 100%
Musca domestica Adulten
  Wirkung (Abtötung in %): 80%
Lucilia cuprina Larven
  Wirkung (Abtötung in %): 100%
physchem
  chromatographic logP: 4.17
Tetranychus urticae
  Wirkung: 90%
Spodoptera frugiperda
  Wirkung: 100%

## Cn1nc(C(F)(F)C(F)(F)F)c(C(F)(F)F)c1C(=O)Nc1ccc(Cl)c(C(=O)Nc2cccnc2)c1 [Ia-2]
Boophilus microplus
  Wirkung: 100%
Ctenocephalides felis
  Wirkung (Abtötung in %): 100%
Phaedon cochleariae
  Wirkung: 100%
physchem
  chromatographic logP: 2.69
Tetranychus urticae
  Wirkung: 90%
Spodoptera frugiperda
  Wirkung: 100%

## Cn1nc(C(F)(F)C(F)(F)F)c(C(F)(F)F)c1C(=O)Nc1ccc(Cl)c(C(=O)Nc2ccccc2)c1 [Ia-15]
Boophilus microplus
  Wirkung: 100%
Ctenocephalides felis
  Wirkung (Abtötung in %): 100%
Phaedon cochleariae
  Wirkung: 100%
Lucilia cuprina Larven
  Wirkung (Abtötung in %): 100%
physchem
  chromatographic logP: 3.84
Tetranychus urticae
  Wirkung: 90%
Spodoptera frugiperda
  Wirkung: 100%

## Cn1nc(C(F)(F)C(F)(F)F)c(C(F)(F)F)c1C(=O)Nc1ccc(Cl)c(C(=O)Nc2ccc(F)cc2)c1 [Ia-17]
Boophilus microplus
  Wirkung: 100%
Ctenocephalides felis
  Wirkung (Abtötung in %): 90%
Phaedon cochleariae
  Wirkung: 100%
Musca domestica Adulten
  Wirkung (Abtötung in %): 100%
Lucilia cuprina Larven
  Wirkung (Abtötung in %): 100%
physchem
  chromatographic logP: 3.89
Tetranychus urticae
  Wirkung: 80%
Spodoptera frugiperda
  Wirkung: 100%

## Cn1nc(C(F)(F)C(F)(F)F)c(C(F)(F)F)c1C(=O)Nc1ccc(Cl)c(C(=O)Nc2ccc(F)cc2F)c1 [Ia-22]
Boophilus microplus
  Wirkung: 100%
Ctenocephalides felis
  Wirkung (Abtötung in %): 100%
Phaedon cochleariae
  Wirkung: 100%
Musca domestica Adulten
  Wirkung (Abtötung in %): 90%
Lucilia cuprina Larven
  Wirkung (Abtötung in %): 100%
physchem
  chromatographic logP: 4.05
Tetranychus urticae
  Wirkung: 100%
Spodoptera frugiperda
  Wirkung: 100%

## Cn1nc(C(F)(F)C(F)(F)F)c(C(F)(F)F)c1C(=O)Nc1ccc(Cl)c(C(=O)Nc2ccc(Cl)nc2)c1 [Ia-11]
Boophilus microplus
  Wirkung: 100%
Ctenocephalides felis
  Wirkung (Abtötung in %): 80%
Phaedon cochleariae
  Wirkung: 100%
Lucilia cuprina Larven
  Wirkung (Abtötung in %): 100%
physchem
  chromatographic logP: 3.68
Tetranychus urticae
  Wirkung: 90%
Spodoptera frugiperda
  Wirkung: 100%

## Cn1nc(C(F)(F)C(F)(F)F)c(C(F)(F)F)c1C(=O)Nc1ccc(Cl)c(C(=O)Nc2ccc(Cl)cc2)c1 [Ia-28]
Boophilus microplus
  Wirkung: 100%
Ctenocephalides felis
  Wirkung (Abtötung in %): 80%
Phaedon cochleariae
  Wirkung: 100%
Lucilia cuprina Larven
  Wirkung (Abtötung in %): 100%
physchem
  chromatographic logP: 4.23
Tetranychus urticae
  Wirkung: 80%
Spodoptera frugiperda
  Wirkung: 100%

## COc1cccc(NC(=O)c2cc(NC(=O)c3c(C(F)(F)F)c(C(F)(F)C(F)(F)F)nn3C)ccc2Cl)c1 [Ia-16]
Boophilus microplus
  Wirkung: 100%
Ctenocephalides felis
  Wirkung (Abtötung in %): 95%
Phaedon cochleariae
  Wirkung: 100%
Lucilia cuprina Larven
  Wirkung (Abtötung in %): 90%
physchem
  chromatographic logP: 3.84
Tetranychus urticae
  Wirkung: 80%
Spodoptera frugiperda
  Wirkung: 100%

## Cc1cc(NC(=O)c2cc(NC(=O)c3c(C(F)(F)F)c(C(F)(F)C(F)(F)F)nn3C)ccc2Cl)ccc1F [Ia-29]
Boophilus microplus
  Wirkung: 100%
Ctenocephalides felis
  Wirkung (Abtötung in %): 90%
Phaedon cochleariae
  Wirkung: 100%
Lucilia cuprina Larven
  Wirkung (Abtötung in %): 100%
physchem
  chromatographic logP: 4.23
Spodoptera frugiperda
  Wirkung: 100%

## Cn1nc(C(F)(F)C(F)(F)F)c(C(F)(F)F)c1C(=O)Nc1ccc(Cl)c(C(=O)Nc2ccc(C(F)(F)F)cc2)c1 [Ia-36]
Boophilus microplus
  Wirkung: 100%
Phaedon cochleariae
  Wirkung: 100%
Lucilia cuprina Larven
  Wirkung (Abtötung in %): 90%
physchem
  chromatographic logP: 4.4
Spodoptera frugiperda
  Wirkung: 100%

## Cn1nc(C(F)(F)C(F)(F)F)c(C(F)(F)F)c1C(=O)Nc1ccc(Cl)c(C(=O)Nc2cccc(Cl)c2)c1 [Ia-30]
Boophilus microplus
  Wirkung: 100%
Ctenocephalides felis
  Wirkung (Abtötung in %): 90%
Phaedon cochleariae
  Wirkung: 100%
Lucilia cuprina Larven
  Wirkung (Abtötung in %): 100%
physchem
  chromatographic logP: 4.28
Tetranychus urticae
  Wirkung: 90%
Spodoptera frugiperda
  Wirkung: 100%

## Cn1nc(C(F)(F)C(F)(F)F)c(C(F)(F)F)c1C(=O)Nc1ccc(Cl)c(C(=O)Nc2ccccn2)c1 [Ia-8, N-[4-Chlor-3-(pyrid-2-yl-carbamoyl)phenyl]-1-methyl-3-(pentafluorethyl)-4-(trifluormethyl)-1H-pyrazol-5-carboxamid]
Boophilus microplus
  Wirkung: 100%
Ctenocephalides felis
  Wirkung (Abtötung in %): 100%
Phaedon cochleariae
  Wirkung: 100%
Lucilia cuprina Larven
  Wirkung (Abtötung in %): 100%
physchem
  chromatographic logP: 3.53
Tetranychus urticae
  Wirkung: 80%
Spodoptera frugiperda
  Wirkung: 100%
